Experiments:
[1] = system: A549 NSCLC cells; experiment: MTT cell viability assay, A549; format: cell-based, human; conditions: for IC50: Homo sapiens, A549, 72 h, MTT; for SI (Selectivity Index): IC50 HDF / IC50 A549
Method: (§1) The human non-small cell lung cancer (NSCLC) and Human Dermal Fibroblasts (HDF) cell lines were all obtained from the American Type Culture Collection (ATCC). The H1975 (CRL-5908™) cell line was grown in RPMI 1640 medium (ECB2000) while the A549 (CCL-185™) and HDF were grown in complete DMEM medium (ECM0095) All cultures were supplemented with 10% fetal bovine serum (FBS), 2 mM L-glutamine, 100 U/mL penicillin, and 100 µg/mL streptomycin,. All cell lines were routinely maintained in 75 cm^2 flasks in a cell incubator at 37 °C, 5% CO2, and 95% relative humidity. The cell cultures were detached by trypsinization with 0.5% trypsin in PBS containing 0.025% EDTA. All cell culture reagents were supplied by Euroclone (Milan, Italy).
(§2) The number of metabolically active cells, and thus cell viability, was assessed by a 3-(4,5-dimethylthiazol-2-yl)-2,5-diphenyltetrazolium bromide (MTT) assay as previously described. The NSCLC cell lines (A549 and H1975) and HDF were seeded in 96-well plates to reach 50% confluence at 24 h; then, the medium was removed and replaced with 0.2 mL of fresh culture medium containing increasing compound concentrations (0–160 µM). After 72 h, the medium from each well was removed and replaced with fresh medium supplemented with MTT at a final concentration of 200 µg/mL. After incubation for 4 h at 37 °C, 0.2 mL of DMSO was added to each well followed by multiwell shaking for 4 min. The absorbance was read on a multiwell scanning microplate reader (BioTek Synergy HT MicroPlate Reader Spectrophotometer, BioTek Instruments Inc., Winooski, VT, USA) at 570 nm using the extraction buffer as a blank. The optical density in the control group (untreated cells) was considered as 100% viability. The relative cell viability (%) was calculated as (OD570 of treated samples/OD570 of untreated samples) × 100. Dose-dependent curves were therefore generated for the cytotoxic studies. The 50% inhibiting concentration (IC50) was determined by non-linear regression analysis with a three-parameter fit by utilizing SigmaPlot 12.0 Software, USA, Systat Software, Inc. SigmaPlot for Windows. Each experiment was performed at least five times in triplicate.

[2] = LogP determination (1-octanol/PBS partition, UV-vis); format: physicochemical; conditions: 1-octanol/PBS, pH 7.4, 1-octanol/PBS pH 7.4; read-out: Experimental LogP
Method: LogP was determined as previously described. Briefly, solutions of each APF were prepared in 1-octanol, and UV-vis spectra were acquired to determine the λmax. After having placed 2.5 mL of each solution in 10 mL conical centrifuge tubes, PBS was added (2.5 mL, pH 7.4) and the biphasic system was mixed using a vortex mixer (VELP Scientifica, Usmate Velate MB, Italy) followed by centrifugation (2000× g, 5 min). Then, the octanol phase absorption was measured at λmax. The partition coefficient Ko/w was calculated according to the following equation:Ko/w = [APF]oct/[APF]PBS = […] where Ai is the initial measured absorbance in octanol, pre-extraction, and Af is the final measured absorbance in octanol, post-extraction.

[3] = system: H1975 NSCLC cells; experiment: MTT cell viability assay, H1975; format: cell-based, human; conditions: for IC50: Homo sapiens, NCI-H1975, 72 h, H1975, 72 h, MTT; for SI (Selectivity Index): IC50 HDF / IC50 H1975
Method: as §1, §2

[4] = system: human dermal fibroblasts (HDF); experiment: MTT cell viability assay, HDF; format: cell-based; conditions: Fibroblast, 72 h
Method: as §1, §2

[5] = system: advanced NSCLC; set-up: method as in PMID 12177774, PMID 17912235, PMID 36674503; conditions: treatment of advanced NSCLC; cited from earlier work

Row | SMILES | IC50 [1] | SI (Selectivity Index) [1] | logP [2] | IC50 [3] | IC50 [4] | SI (Selectivity Index) [3] | overall response rate [5]
1 | Nc1ccc(Oc2cccc3oc(-c4cccc(Oc5ccccc5)c4)cc(=O)c23)cc1 [APF-4, 5-(4-aminophenoxy)-2-(3′-phenoxy)phenyl-4H-chromen-4-one] | 32 ± 5 µM | >5 | 2.9 ± 0.2 | > 160 µM | > 160 µM | – | –
2 | Nc1ccc(Oc2ccc3oc(-c4ccc(Oc5ccccc5)cc4)cc(=O)c3c2)cc1 [APF-5, 6-(4-aminophenoxy)-2-(4′-phenoxy)phenyl-4H-chromen-4-one] | 7 ± 3 µM | 7 | 3.2 ± 0.3 | 10 ± 5 µM | 55 ± 2 µM | 5.5 | –
3 | COc1cccc2c1C(=O)c1c(O)c3c(c(O)c1C2=O)C[C@@](O)(C(=O)CO)C[C@@H]3O[C@H]1C[C@H](N)[C@H](O)[C@H](C)O1 [Doxorubicin, reference compound] | 0.8 ± 0.2 µM | 18 | – | 2.5 ± 0.4 µM | 14 ± 4 µM | 6 | 30–50%
